Laboratory results as given in patent US20250034586A1, “METHOD FOR EDITING BANANA GENES” (Tropic Biosciences UK Limited, priority 2021, published 2025).

Tests used:
[1] = tested on: banana embryos or leaf material; assay: Comparison of selection using ALS inhibitor, G418 or hygromycin (genotyping of embryos or leaf material); format: cell-based; conditions: embryos
Description: In every case, regenerated material was transformed with constructs containing T-DNA that would generate resistance in positive transformants.

PPO2, Ma07_g03540 = assay: Trait co-editing in selected embryos (PBE #3); format: cell-based, banana; conditions: G418 selection
Protocol: (§1) We transformed ECS as described previously in Example 6, using the new co-editing plasmids detailed in Table 11 above. Embryos were regenerated as detailed previously, either on media without selection, with 25 mg/L G418, 25 μg/L CSF or 50 μg/L CSF. Initial genotyping of all plasmids tested:
(§2) • All with CsVMV-rAPOBEC1 CBE (rAPOBEC+nCas9 (D10A) PBE from Zong et al. 2017*) and nosP-NptII • pMol_0925 (sgGFP-pNOS::Kan::tOCS-pCsVMV::nCas9PBE1::tg7-Dummy-pTaU6::sg1GFP_58-pTaU6::sg2GFP_59) • pMol_0934 (sgGFP, sgALS1-pNOS::Kan::tOCS-pCsVMV::nCas9PBE1::tg7-taU6::MaALS1sg2_2021-pTaU6::sg1GFP_58-pTaU6::sg2GFP_59) • pMol_0935 (sgGFP, sgALS2-pNOS::Kan::tOCS-pCsVMV::nCas9PBE1::tg7-taU6::MaALS2sg2_2023-pTaU6::sg1GFP_58-pTaU6::sg2GFP_59) • pMol_0926 (sgPPO2, sgALS1-pNOS::Kan::tOCS-pCsVMV::nCas9PBE1::tg7-taU6::MaALS1sg2_2021-pTaU6::sg1PPO2_2961-pTaU6::sg2PPO2_2962-pTaU6::sg3PPO2_2963) • pMol_0927 (sgPPO2, sgALS1-pNOS::Kan::tOCS-pCsVMV::nCas9PBE1::tg7-taU6::MaALS1sg2_2021-pTaU6::sg3PPO2_2963-pTaU6::sg4PPO2_2964) • pMol_0928 (sgACO1, sgALS1-pNOS::Kan::tOCS-pCsVMV::nCas9PBE1::tg7-taU6::MaALS1sg2_2021-pTaU6::sg1ACO1_2965-pTaU6::sg2ACO1_2966-pTaU6::sg3ACO1_2967) • pMol_0929 (sgPPO2, sgALS2-pNOS::Kan::tOCS-pCsVMV::nCas9PBE1::tg7-taU6::MaALS2sg2_2023-pTaU6::sg1PPO2_2961-pTaU6::sg2PPO2_2962-pTaU6::sg3PPO2_2963) • pMol_0930 (sgPPO2, sgALS2-pNOS::Kan::tOCS-pCsVMV::nCas9PBE1::tg7-taU6::MaALS2sg2_2023-pTaU6::sg3PPO2_2963-pTaU6::sg4PPO2_2964) • pMol_0931 (sgACO1, sgALS2-pNOS::Kan::tOCS-pCsVMV::nCas9PBE1::tg7-taU6::MaALS2sg2_2023-pTaU6::sg1ACO1_2965-pTaU6::sg2ACO1_2966-pTaU6::sg3ACO1_2967) ECS were left to ‘recover’ after transformation for 1 week in CS+cefo 300 mg/L. We regenerated embryos in 4 different conditions: • 1. No selection • 2. Stable G418 selection (in EDM only 2-3 months) from PBE #3 only (PBE #1/2 plasmids only have mCherry, not NptII) • 3. 25 μg/L chlorsulfuron (in EDM only 2-3 months) • 4. 50 μg/L chlorsulfuron (in EDM only 2-3 months)
(§3) gDNA from embryos and plantlets was extracted and qPCR was used to test for the presence of integrated tDNA in the plant genome. Three independent qPCRs were run on each sample with different sets of primers (listed below) spanning the tDNA, ranging from the left to right border. An additional qPCR was run on an endogenous banana gene (actin) for normalisation of Ct values. All qPCRs were run on the LightCycler® 96 System (Roche) using PowerUp™ SYBR® Green Master Mix (Thermo Fisher Scientific™).
(§4) For edit validation, amplicons for each target gene (als1, als2, ppo2, aco1) were made using Q5® High-Fidelity 2× Master Mix (New England Biolabs, NEB) using reaction settings listed below. PCR products were purified using Monarch® PCR & DNA Cleanup Kit (NEB) according to manufacturer's specifications. The amplicons were after validated by Sanger sequencing.

ACO1, Ma01_g11540 = assay: Trait co-editing in selected embryos (PBE #3); format: cell-based, banana; conditions: G418 selection
Protocol: as §1, §2, §3, §4

CN[C@@H]1[C@@H](O)[C@@H](O[C@@H]2[C@@H](O)[C@H](O[C@H]3O[C@H]([C@@H](C)O)[C@@H](O)[C@H](O)[C@H]3N)[C@@H](N)C[C@H]2N)OC[C@]1(C)O [Plasmid G418]
Editing frequency ([1]; stable selection): 17/28 = 60.7%
Transgenic frequency ([1]; stable selection): 18/28 = 64.3%
Editing frequency ([1]; transient selection): 35/867 = 4.0%
Non-transgenic edited ([1]; transient selection): 0/774 = 0%
Transgenic frequency ([1]; transient selection): 95/943 = 10.1%
Percentage edited PPO2 embryos (PPO2, Ma07_g03540): 31.25
PPO2 edited embryos total (PPO2, Ma07_g03540; 16 embryos tested): 5
Percentage edited ACO1 embryos (ACO1, Ma01_g11540): 33.33
ACO1 edited embryos total (ACO1, Ma01_g11540; 6 embryos tested): 2
